# Patent publication US20220267352A1, “RAPAMYCIN ANALOGS AND USES THEREOF” (Anakuria Therapeutics, Inc., priority 2021, published 2022)
# Tests used:
# Assay type in all cases: cell-based
# [1] = tested on: p-p70 S6 Kinase (Thr389) in MCF-7 cells; assay: AlphaLISA Ultra pS6K1 assay; details: Homo sapiens, 1.5 h; MCF7 cells, 90 min
# Description: Example 55: AlphaLISA Ultra pS6K1 Assay
# (§1) Assay Protocol: • 1. Seed MCF-7 cells in Corning 3701 plate and incubate for 20˜24 hour. 12,000˜16,000 cells will be seeded in 36 μL medium per well. • 2. Change the culture medium with fresh medium and incubate for another 2 hours. • 3. Add 12 μL (4×) compounds into the cell plate by HAMILTON. Final DMSO concentration is 0.5%. Incubate for 90 minutes. • 4. Aspirate 38 μL by HAMILTON, 10 μL rest per well. • 5. Add 10 μL 2× lysis buffer using HAMILTON; total volume in wells is 20 μL. Allow cells to shake for 30 min. Cover plate by plastic foil and store plate at −80° C. up to analysis. • 6. Thaw cell lysate at RT and transfer 10 μL lysate to assay plate (Optiplate-384). • 7. Add 5 μL acceptor beads into assay plate and incubation for 2 hours • 8. Add 5 μL donor beads and incubation for 2 hours • 9. Count the plate by EnSpire Multimode Plate Reader
# mTORC1 over mTORC2 = mTORC1 over mTORC2 selectivity by comparing pS6K1 and pAKT IC50; details: by comparing pS6K1 and pAKT IC50, 90 min
# Description: as §1, with “Reader […]” for “Reader”
# Compounds that are not selective by comparing pS6K1 and pAKT IC50 by kinase assays are indicated by “NO” in the “mTORC1 selective @ 90 min” column of Table 4. […] Compounds that are not selective at the 24 hrs mark are indicated by “NO” in the “mTORC1 selective @ 24 hrs” column of Table 4. “N/A” stands for “not assayed” and “N/C” stands for “not calculated”.
# [2] = tested on: p-Akt 1/2/3 (Ser473) in MCF-7 cells; assay: AlphaLISA Ultra pAKT assay; details: Homo sapiens, 1.5 h; MCF7 cells, 90 min
# Description: Example 56: AlphaLISA Ultra pAKT Assay
# as §1, with “1.” for “1. Seed”, “16,000˜20,000” for “12,000˜16,000”, “90 minutes.” for “2 hours.”, “Incubate for 90 minutes. • 4.” left out
SMILES,IC50 [1] [nM],IC50 [2] [nM],mTORC1 selective @ 90 min (mTORC1 over mTORC2)
"COCCOCCO[C@@H]1C[C@@H]2CC[C@@H](C)[C@@](O)(O2)C(=O)C(=O)N2CCCC[C@H]2C(=O)O[C@H]([C@H](C)C[C@@H]2CC[C@@H](OC(F)F)[C@H](OC)C2)CC(=O)[C@H](C)/C=C(\C)[C@@H](O)[C@@H](OC)C(=O)[C@H](C)C[C@H](C)/C=C/C=C/C=C/1C [I-5, (22E,24E,26E,27E,33R,34S,35R,36R,38S,40S,42R,43S,44R,45R,55R)-43-[(1R)-2-[(1S,3R,4R)-4-(difluoromethoxy)-3-methoxy-cyclohexyl]-1-methyl-ethyl]-44,55-dihydroxy-45-methoxy-42-[2-(2-methoxyethoxy)ethoxy]-33,34,35,36,46,47-hexamethyl-64,65-dioxa-56-azatricyclohexatriaconta-22,24,26(46),27(47)-tetraene-48,49,50,51,52-pentone]",10 to 100,≥ 1000,Yes
"COCCOCCOC1C[C@@H]2CC[C@@H](C)[C@@](O)(O2)C(=O)C(=O)N2CCCC[C@H]2C(=O)O[C@H]([C@H](C)C[C@@H]2CCC(OC3COC3)[C@H](OC)C2)CC(=O)[C@H](C)/C=C(\C)[C@@H](O)[C@@H](OC)C(=O)[C@H](C)C[C@H](C)/C=C/C=C/C=C/1C (stereo partly drawn) [I-7, (24E,26E,28E,29E,35R,36S,37R,38R,40S,42S,45S,47R,48R,57R)-47,57-dihydroxy-48-methoxy-44-[2-(2-methoxyethoxy)ethoxy]-45-[(1R)-2-[(1S,3R)-3-methoxy-4-(oxetan-3-yloxy)cyclohexyl]-1-methyl-ethyl]-35,36,37,38,49,50-hexamethyl-67,68-dioxa-58-azatricyclohexatriaconta-24,26,28(49),29(50)-tetraene-51,52,53,54,55-pentone]",1 to 10,≥ 1000,Yes
"CO[C@@H]1/C(C)=C/[C@@H](C)C(=O)C[C@@H]([C@H](C)C[C@@H]2CC[C@@H](O)[C@H](OC)C2)OC(=O)[C@@H]2CCCCN2C(=O)C(=O)[C@]2(O)O[C@@H](CC[C@H]2C)CC(OCCOC2COC2)/C(C)=C/C=C/C=C/[C@@H](C)C[C@@H](C)C(=O)[C@@H]1OC (stereo partly drawn) [I-11, (3S,6R,7E,9R,10R,12R,14S,15E,17E,19E,23S,26R,27R,34aS)-27-hydroxy-3-((R)-1-((1S,3R,4R)-4-hydroxy-3-methoxycyclohexyl)propan-2-yl)-9,10-dimethoxy-6,8,12,14,20,26-hexamethyl-21-(2-(oxetan-3-yloxy)ethoxy)-9,10,12,13,14,21,22,23,24,25,26,27,32,33,34,34a-hexadecahydro-3H-23,27-epoxypyrido[2,1-c][1]oxa[4]azacyclohentriacontine-1,5,11,28,29(4H,6H,31H)-pentaone]",10 to 100,≥ 1000,Yes
"CO[C@@H]1C[C@H](C[C@@H](C)[C@@H]2CC(=O)[C@H](C)/C=C(\C)[C@@H](O)[C@@H](OC)C(=O)[C@H](C)C[C@H](C)/C=C/C=C/C=C(\C)[C@H](OCCOC3COC3)C[C@@H]3CC[C@@H](C)[C@@](O)(O3)C(=O)C(=O)N3CCCC[C@H]3C(=O)O2)CC[C@H]1OCCCN1CCOCC1 [I-13, (27E,29E,31E,32E,39R,40S,41R,42R,44S,46S,48R,49S,51R,52R,61R)-51,61-dihydroxy-52-methoxy-49-[(1R)-2-[(1S,3R,4R)-3-methoxy-4-(3-morpholinopropoxy)cyclohexyl]-1-methyl-ethyl]-39,40,41,42,53,54-hexamethyl-48-[2-(oxetan-3-yloxy)ethoxy]-73,74-dioxa-63-azatricyclohexatriaconta-27,29,31(53),32(54)-tetraene-55,56,57,58,59-pentone]",1 to 10,≥ 1000,Yes

# Now from value to molecule, other results behind:
IC50 [1] [nM],IC50 [2] [nM],SMILES,mTORC1 selective @ 90 min (mTORC1 over mTORC2)
10 to 100,≥ 1000,"CO[C@@H]1C[C@H](C[C@@H](C)[C@@H]2CC(=O)[C@H](C)/C=C(\C)[C@@H](O)[C@@H](OC)C(=O)[C@H](C)C[C@H](C)/C=C/C=C/C=C(\C)C(OCC3COCCO3)C[C@@H]3CC[C@@H](C)[C@@](O)(O3)C(=O)C(=O)N3CCCC[C@H]3C(=O)O2)CC[C@H]1OC(F)F (stereo partly drawn) [I-6, (24E,26E,28E,29E,32R,33S,34R,35R,37S,39S,42S,44R,45R,55R)-42-[(1R)-2-[(1S,3R,4R)-4-(difluoromethoxy)-3-methoxy-cyclohexyl]-1-methyl-ethyl]-41-(1,4-dioxan-2-ylmethoxy)-44,55-dihydroxy-45-methoxy-32,33,34,35,46,47-hexamethyl-66,67-dioxa-56-azatricyclohexatriaconta-24,26,28(46),29(47)-tetraene-48,49,50,51,52-pentone]",Yes
10 to 100,≥ 1000,"CO[C@@H]1/C(C)=C/[C@@H](C)C(=O)C[C@@H]([C@H](C)C[C@@H]2CC[C@@H](OC(F)F)[C@H](OC)C2)OC(=O)[C@@H]2CCCCN2C(=O)C(=O)[C@]2(O)O[C@@H](CC[C@H]2C)CC(OCC2COCCO2)/C(C)=C/C=C/C=C/[C@@H](C)C[C@@H](C)C(=O)[C@@H]1OC (stereo partly drawn) [I-8, (25E,27E,29E,30E,33R,34S,35R,36R,38S,40S,43S,45R,46R,56R)-43-[(1R)-2-[(1S,3R,4R)-4-(difluoromethoxy)-3-methoxy-cyclohexyl]-1-methyl-ethyl]-42-(1,4-dioxan-2-ylmethoxy)-56-hydroxy-45,46-dimethoxy-33,34,35,36,47,48-hexamethyl-66,67-dioxa-57-azatricyclohexatriaconta-25,27,29(47),30(48)-tetraene-49,50,51,52,53-pentone]",Yes
10 to 100,≥ 1000,"CO[C@@H]1C[C@H](C[C@@H](C)[C@@H]2CC(=O)[C@H](C)/C=C(\C)[C@@H](O)[C@@H](OC)C(=O)[C@H](C)C[C@H](C)/C=C/C=C/C=C(\C)[C@H](OCC3COCCO3)C[C@@H]3CC[C@@H](C)[C@@](O)(O3)C(=O)C(=O)N3CCCC[C@H]3C(=O)O2)CC[C@H]1OC(F)F (stereo partly drawn) [I-10, (24E,26E,28E,29E,32R,33S,34R,35R,37S,39S,41R,42S,44R,45R,55R)-42-[(1R)-2-[(1S,3R,4R)-4-(difluoromethoxy)-3-methoxy-cyclohexyl]-1-methyl-ethyl]-41-(1,4-dioxan-2-ylmethoxy)-44,55-dihydroxy-45-methoxy-32,33,34,35,46,47-hexamethyl-66,67-dioxa-56-azatricyclohexatriaconta-24,26,28(46),29(47)-tetraene-48,49,50,51,52-pentone]",Yes
< 1,≥ 1000,"CO[C@@H]1C[C@H](C[C@@H](C)[C@@H]2CC(=O)[C@H](C)/C=C(\C)[C@@H](O)[C@@H](OC)C(=O)[C@H](C)C[C@H](C)/C=C/C=C/C=C(\C)C(OCC3COCCO3)C[C@@H]3CC[C@@H](C)[C@@](O)(O3)C(=O)C(=O)N3CCCC[C@H]3C(=O)O2)CC[C@H]1OCCCN1CCOCC1 (stereo partly drawn) [I-12, (28E,30E,32E,33E,39R,40S,41R,42R,44S,46S,49S,51R,52R,61R)-48-(1,4-dioxan-2-ylmethoxy)-51,61-dihydroxy-52-methoxy-49-[(1R)-2-[(1S,3R,4R)-3-methoxy-4-(3-morpholinopropoxy)cyclohexyl]-1-methyl-ethyl]-39,40,41,42,53,54-hexamethyl-74,75-dioxa-63-azatricyclohexatriaconta-28,30,32(53),33(54)-tetraene-55,56,57,58,59-pentone]",Yes
